One assay addresses T1, PIKfyve (Homo sapiens, UniProt Q9Y2I7).
T1 construct: with VHL
Nature of the assay: PROTAC degradation by immunoblot in VCaP cells (DC50), blocked by warhead […] and VL285; TMT proteomics. The assay is classed as cell-based. (A western blot detects proteins with antibodies after separation by electrophoresis.)

The next assay addresses T2, von Hippel–Lindau (VHL) (Homo sapiens, UniProt P40337).
T2 construct: with PIKfyve
Briefly: VHL-dependent degradation in VCaP cells: blocked by VL285; inactive hydroxy isomer […]dN does not degrade. The class given is cell-based.

T2 sequence (P40337 whole entry): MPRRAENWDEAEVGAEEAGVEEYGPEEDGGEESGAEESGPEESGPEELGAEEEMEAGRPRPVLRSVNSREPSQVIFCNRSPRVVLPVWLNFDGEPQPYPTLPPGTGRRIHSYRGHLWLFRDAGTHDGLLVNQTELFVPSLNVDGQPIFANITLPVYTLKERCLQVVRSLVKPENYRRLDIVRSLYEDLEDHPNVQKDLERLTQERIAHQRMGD
T2 sequence (Q9Y2I7 2-2098 partner): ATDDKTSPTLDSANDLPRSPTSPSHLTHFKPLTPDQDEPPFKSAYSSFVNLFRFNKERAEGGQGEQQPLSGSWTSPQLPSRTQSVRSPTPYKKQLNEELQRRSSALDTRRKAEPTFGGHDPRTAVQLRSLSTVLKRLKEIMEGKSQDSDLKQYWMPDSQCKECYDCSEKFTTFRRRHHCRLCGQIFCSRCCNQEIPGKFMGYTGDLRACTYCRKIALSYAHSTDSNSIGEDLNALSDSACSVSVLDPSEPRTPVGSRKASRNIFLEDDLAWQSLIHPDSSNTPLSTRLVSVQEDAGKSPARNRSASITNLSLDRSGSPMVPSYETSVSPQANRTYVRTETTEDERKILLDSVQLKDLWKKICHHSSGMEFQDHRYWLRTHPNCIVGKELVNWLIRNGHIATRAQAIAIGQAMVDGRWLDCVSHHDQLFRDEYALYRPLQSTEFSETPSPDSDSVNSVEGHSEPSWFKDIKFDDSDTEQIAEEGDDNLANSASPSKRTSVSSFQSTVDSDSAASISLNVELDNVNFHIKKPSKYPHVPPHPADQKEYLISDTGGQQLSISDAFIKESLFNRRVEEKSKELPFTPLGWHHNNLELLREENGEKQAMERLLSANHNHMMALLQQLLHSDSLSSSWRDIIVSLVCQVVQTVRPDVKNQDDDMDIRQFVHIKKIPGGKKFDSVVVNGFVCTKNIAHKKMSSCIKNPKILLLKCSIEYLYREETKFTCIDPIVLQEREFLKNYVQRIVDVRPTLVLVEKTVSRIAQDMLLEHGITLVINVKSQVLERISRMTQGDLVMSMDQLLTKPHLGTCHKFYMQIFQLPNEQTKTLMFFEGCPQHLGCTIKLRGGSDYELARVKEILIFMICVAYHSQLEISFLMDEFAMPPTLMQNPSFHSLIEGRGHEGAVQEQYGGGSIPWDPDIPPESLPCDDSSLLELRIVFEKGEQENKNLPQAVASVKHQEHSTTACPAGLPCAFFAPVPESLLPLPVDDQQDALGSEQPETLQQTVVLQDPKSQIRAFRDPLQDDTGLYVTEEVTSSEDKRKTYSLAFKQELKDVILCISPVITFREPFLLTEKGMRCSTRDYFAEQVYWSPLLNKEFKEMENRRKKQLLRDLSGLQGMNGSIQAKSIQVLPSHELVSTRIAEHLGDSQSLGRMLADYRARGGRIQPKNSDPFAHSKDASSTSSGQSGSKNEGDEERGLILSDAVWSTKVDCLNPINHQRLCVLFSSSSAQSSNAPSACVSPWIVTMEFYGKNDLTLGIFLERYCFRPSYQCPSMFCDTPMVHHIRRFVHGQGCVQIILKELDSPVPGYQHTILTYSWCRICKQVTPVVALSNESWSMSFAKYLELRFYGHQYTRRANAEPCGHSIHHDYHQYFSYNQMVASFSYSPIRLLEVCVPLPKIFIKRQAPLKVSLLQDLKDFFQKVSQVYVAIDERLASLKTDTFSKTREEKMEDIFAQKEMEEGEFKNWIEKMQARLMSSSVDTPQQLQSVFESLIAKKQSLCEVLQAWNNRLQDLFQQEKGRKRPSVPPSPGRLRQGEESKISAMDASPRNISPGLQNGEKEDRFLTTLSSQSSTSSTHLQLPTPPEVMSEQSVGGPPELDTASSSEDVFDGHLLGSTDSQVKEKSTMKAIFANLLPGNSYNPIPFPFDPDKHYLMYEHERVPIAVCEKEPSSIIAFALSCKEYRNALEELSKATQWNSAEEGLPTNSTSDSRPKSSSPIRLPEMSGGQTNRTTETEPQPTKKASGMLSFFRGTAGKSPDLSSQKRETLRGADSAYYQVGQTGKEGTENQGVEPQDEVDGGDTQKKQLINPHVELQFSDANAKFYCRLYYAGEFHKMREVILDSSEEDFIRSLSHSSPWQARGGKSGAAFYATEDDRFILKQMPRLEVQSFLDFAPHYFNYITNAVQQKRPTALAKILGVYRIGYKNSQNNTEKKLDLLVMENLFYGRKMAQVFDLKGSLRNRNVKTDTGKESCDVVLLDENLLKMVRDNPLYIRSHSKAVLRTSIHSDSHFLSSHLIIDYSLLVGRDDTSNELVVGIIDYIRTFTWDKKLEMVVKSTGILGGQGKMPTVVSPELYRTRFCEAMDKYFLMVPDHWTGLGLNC
T1 sequence (Q9Y2I7 2-2098): as the sequence (Q9Y2I7 2-2098 partner) above

What is called DC50 is the midpoint of the concentration-degradation curve. Read a low DC50 as a more potent degrader. On to `Cc1cccc(/C=N/Nc2cc(N3CCOCC3)nc(OCCc3ccc(NC(=O)CCCCC(=O)N[C@H](C(=O)N4C[C@H](O)C[C@H]4C(=O)NCc4ccc(-c5scnc5C)cc4)C(C)(C)C)cc3)n2)c1` [12d, N^1-((S)-1-((2S,4R)-4-Hydroxy-2-((4-(4-methylthiazol-5-yl)benzyl)carbamoyl)pyrrolidin-1-yl)-3,3-dimethyl-1-oxobutan-2-yl)-N^6-(4-(2-((4-(2-((E)-3-methylbenzylidene)hydrazineyl)-6-morpholinopyrimidin-2-yl)oxy)ethyl)phenyl)adipamide], for which the DC50 on PIKfyve was determined as 1.48 nM. Besides, the “VHL-dependent degradation in VCaP cells: blocked by VL285; inactive hydroxy isom” value at von Hippel–Lindau (VHL) was “PIK5-12d induced PIKfyve degradation in a VHL- and proteasome-dependent manner”.
